Source: patent publication US20230338294A1, “NOVEL PHARMACEUTICAL FORMULATION FOR C-MET INHIBITOR” (APOLLOMICS INC., priority 2020, published 2023)

How the values were obtained:
[1] = Two stage 'gastric transfer' non-sink biorelevant dissolution test; type: physicochemical; conditions: for Cmax FaSSIF: intestinal stage FaSSIF pH 6.8; for AUC35-210 FaSSIF: 35-210 minutes in FaSSIF; for C210: concentration at 210 minutes
Description: Biorelevant drug dissolution performance for bulk API and subsequent ASDs was evaluated by Patheon's two stage ‘gastric transfer’ non-sink dissolution test, which simulates pH and bile salt concentrations for both gastric and intestinal exposure in a simple to perform assay. Pre-weighed powder is briefly suspended in media (e.g. by 10 sec vortex mixing with 4.0 mL media) and transferred to a pre-heated (37° C.) volume of 50 mL of 0.1N HCl (aq) pH ˜1.0, without pepsin or bile salts), in a USP Type 2 mini-vessel (100 mL total vessel volume) while stirring (paddles) at 100 rpm. After 30 minutes of gastric pH exposure, an equal volume of PBS buffered, 2× concentrated fasted-state simulated intestinal fluid (FaSSIF) is added to the HCl, resulting in a final pH of 6.8 in FaSSIF (100 mM PBS containing 2.24 mg/mL FaSSIF/FeSSIF/FaSSGF powder (Biorelevant Inc.) in a total volume of 100 mL. Aliquots (1.0 mL) of dissolution media are taken at the following time points: 10, 25, 35, 50, 70, 120 and 210 minutes. The first two aliquots are taken from the simulated gastric media, with the remaining five aliquots from the intestinal media. Aliquots are spun-down (13000 rpm) to pellet out undissolved solids, and the supernatant sampled and further diluted in an appropriate diluent to determine API total drug concentration (e.g. free and colloidal/polymer-bound drug in solution) utilizing a suitable HPLC method. The volume of FaSSIF added is adjusted to account for the sampling volume removed prior to gastric transfer (typically 4×1.0 mL). Initial API concentration in dissolution samples was determined utilizing a HPLC method.
The dissolution performance of the feasibility SDIs and bulk APL-101 was tested in a biorelevant non-sink dissolution experiment as described in EXAMPLE 1. The design of this experiment is to rank order and select lead formulations. […] 20% and 33% active HPMCAS-H and 20% active HPMC-E3LV and PVP-VA based formulations were nominated as the lead formulations.

[2] = Glass transition temperature (Tg) by modulated DSC; type: physicochemical; conditions: MDSC
Description: DSC was performed using a TA Instruments Discovery DSC2500 differential scanning calorimeter equipped with a TA instruments Refrigerated Cooling System 90 operating in either modulated or ramp mode. DSC was used to measure thermodynamic events and characteristics of APL-101 bulk API and subsequent Spray Dried Intermediates (SDIs). Events observed include the glass transition temperature (Tg) defined as the temperature at which amorphous materials transition from a low mobility glassy state to a high mobility rubbery state, cold crystallization (Tc), defined as a crystallization event at a temperature lower than the melt temperature, and melting temperature (Tm). SDI samples were placed in non-hermetic aluminum pans and heated at a constant rate of 2.0° C./min over a 25-200° C. temperature range. The system was purged by nitrogen flow at 50 mL/min to ensure inert atmosphere through the course of measurement. APL-101 was initially analyzed by standard DSC with a heating rate of 10° C./min ramping up to 221° C. […] The resulting amorphous API was analyzed by modulated DSC to determine the glass transition temperature. […]
Thermal properties of bulk APL-101 were measured by DSC. Three API lots were tested, and it was determined that there were two API forms, Forms A and B, both of which are thought to be hydrates. […]

Row | Structure (SMILES) | Cmax FaSSIF ([1]; Table 3, feasibility SDIs) | AUC35-210 FaSSIF ([1]; Table 3) | C210 ([1]; Table 3) | Cmax FaSSIF ([1]; Table 6, prototype SDI) | AUC35-210 FaSSIF ([1]; Table 6) | C210 ([1]; Table 6) | Tg [2] | Tm/Tg ratio ([2]; indicative of moderate physical stability) | dissolution performance ([1]; gastric and intestinal media, in words)
1 | Cn1cc2cc(C(F)(F)c3nnc4ccc(-c5cnn(C6CC6)c5)nn34)c(F)cc2n1 [APL-101 Form B, 6-(1-cyclopropylpyrazol-4-yl)-3-[difluoro-(6-fluoro-2-methylindazol-5-yl)methyl]-[1,2,4]triazolo[4,3-b]pyridazine] | 8.9 μgA/mL | 1400 min*μgA/mL | 7.8 μgA/mL | 8.9 μgA/mL | 1400 min*μgA/mL | 7.8 μgA/mL | 89 °C | 1.37 K/K | 
2 | Cn1cc2cc(C(F)(F)c3nnc4ccc(-c5cnn(C6CC6)c5)nn34)c(F)cc2n1 [APL-101, 6-(1-cyclopropylpyrazol-4-yl)-3-[difluoro-(6-fluoro-2-methylindazol-5-yl)methyl]-[1,2,4]triazolo[4,3-b]pyridazine] |  |  |  |  |  |  |  |  | very low dissolution performance
